Measured values from ChEMBL document CHEMBL3507680, “University of Dundee, Gates Library screen for HepG2 cell viability”.

Assay: Human HepG2 cell viability assay in 384 well format
Format: toxicity, cell-based
Set-up: dose 125 nL, time 70.5 hour; cytotoxicity at 70.5 h: concentration not given beside the values
Details: HepG2 cells, read-out: Inhibition

Compound | cytotoxicity at 70.5 h
Cc1ccccc1C1CCCN1Cc1ccc(S(=O)(=O)N(C)C)o1 (stereo not drawn) | -2.87%
CCNC(=O)[C@H]1CN(Cc2ccccc2)C[C@@H]1C(=O)c1ccccc1 | -12.3%
CN(CC(=O)N1CC(C)(C)[C@](O)(C2CC2)C1)Cc1ccncc1 | -3.61%
Cc1ccc(CNC2CC3(CCN(CCO)CC3)c3ccccc32)s1 (stereo not drawn) | 4.93%
CC(C)(CNC(=O)Nc1cccc(-c2nccs2)c1)C(N)=O | -0.236%
CCc1nnc2n1CCN(Cc1csc(-c3ncccn3)n1)C2 | -9.92%
Cc1cnn(C2CCCN(C(=O)CCCn3ccnc3C)C2)c1 (stereo not drawn) | 19.3%
CN(Cc1nc(C2CC2)no1)C(=O)CN1CC(c2ccccc2)CC1=O (stereo not drawn) | -2.96%
c1cncc(-c2noc(CN3CCCCC3Cn3cccn3)n2)c1 (stereo not drawn) | 1.66%
CN(Cc1cnccn1)C(=O)c1ccnc(OC2CCC2)c1 | -9.6%
CN(CC(N)=O)C(=O)CCCn1ccc2cc(Cl)ccc21 | 10.8%
CC(C)(C)C(=O)Cn1nc(-c2ccccc2F)ccc1=O | -21.7%
CCn1ccc2ccnc(CC3CN(C(=O)c4ccc(F)cc4)C3)c21 | -6.52%
COCCN1C[C@H]2CC[C@@]3(N=C(C)N(CC4CC4)C3=O)[C@H]2C1 | -2.1%
O=C(NC[C@H]1CCCC[C@H]1O)c1cccc2[nH]c(-c3ccco3)nc12 | 15.3%
CCOCCn1c(=O)[nH]c2cc(C(=O)N(C)Cc3ccno3)ccc21 | -1.24%
CCC(=O)N1CC[C@H]2[C@H](C[C@@H](CN3CCCC3)N2c2nccs2)C1 | -3.2%
COc1ccccc1N1CCN(Cc2nc(C)c(C)o2)CC1 | -8.1%
CN(C)c1ncccc1CNC(=O)N1CCCC1c1ccsc1 (stereo not drawn) | -16.3%
COc1ccccc1OCC(=O)n1nc(C)c(C)c1C | 6.31%
CC1CN(C(=O)c2cnn(-c3ccccn3)c2C(C)C)CC(C)(C)O1 (stereo not drawn) | -4.17%
COc1cccc(-c2c[nH]c(C)n2)c1F | -11.2%
CCc1ncc2c(n1)CN(C(C)C(=O)Nc1ccc(Cl)cn1)CC2 (stereo not drawn) | 20.7%

Compound | cytotoxicity at 70.5 h
CC(=O)N1CCC(NS(=O)(=O)c2cccnc2)CC1 | 8%
O=C(C[S+]([O-])Cc1cccc(Cl)c1)NC1CCCC1 (stereo not drawn) | -3.67%
CC(C)CNC(=O)N1C[C@H]2C[C@H](C(=O)NCc3ccccc3)[C@@H](C1)O2 | 13.9%
Cc1cc(CN2CCN(C(=O)NC(C)Cn3ccnc3)CC2)on1 (stereo not drawn) | 29.6%
Cc1cc(C(=O)N2CCC(Nc3cccnc3)CC2)c(C)s1 | 2.17%
CN(CCc1ncnn1C1Cc2ccccc2C1)C1CCS(=O)(=O)C1 (stereo not drawn) | -11.8%
CNC(=O)C1CCN(c2nccc(CCC(F)(F)F)n2)C1 (stereo not drawn) | -3.72%
CSC1=Nc2c(cnn2-c2ccccc2)C2=NCCCN12 | -8.98%
Cc1nc2[nH]cnc(NCCN3CCOCC3)c-2n1 | -1.72%
CCN1CCO[C@@H]2CN(C(=O)NCc3ccccc3)CC[C@@H]2C1 | -4.68%
NC(=O)c1ccc(NC(=O)c2ccncc2F)cn1 | 10.3%
Cc1ncsc1CN1C[C@H](OCC(C)C)[C@H]2OCCC[C@H]21 | -0.162%
O=C1OCCC1N1CCN(c2ccccn2)CC1 (stereo not drawn) | -15.5%
Cc1ccc(-c2ccnc(NCC(O)c3ccc(O)cc3)n2)c(C)n1 (stereo not drawn) | -4.44%
COCc1cccc(S(=O)(=O)NCc2cnn(C)c2C)c1 | -9.83%
Nc1ncc2c(n1)CN(C1CCCC1)C2=O | -7.28%
c1ccc(Cc2nc(C3CC3)nn2-c2ccc3c(c2)OCCO3)nc1 | 43.6%
O=C(NCCOCC(F)(F)F)c1ccc(-c2ccco2)[nH]c1=O | -9.67%
COc1cccc(CSCC(=O)NCc2cccnc2)c1 | -3.51%
Cc1cc(C2CCCN(CCCNS(C)(=O)=O)C2)n[nH]1 (stereo not drawn) | -25.3%
Cc1noc(C)c1C(=O)NCC(c1ccsc1)N(C)C (stereo not drawn) | -8.5%
CN1CCCCC1Cc1nc2c(cc1C(N)=O)CCC2 (stereo not drawn) | 13.7%
NC(=O)COc1ccc(CN2CCNC(C(=O)NC3CC3)C2)cc1Cl (stereo not drawn) | -10.1%

Compound | cytotoxicity at 70.5 h
CS(=O)(=O)CCC(=O)N1CCC(c2ccc(F)c(F)c2)CC1 | 2.26%
O=C(NCC(F)(F)F)c1coc(COc2cccc(F)c2)n1 | 14.5%
Cc1nccn1CCCn1cncc1-c1ccc2c(c1)CC(C)N2C (stereo not drawn) | 3.68%
CC(C)N1CCC(CC(=O)N2CCCCC2CCn2cccn2)CC1 (stereo not drawn) | -10.4%
N#Cc1cc(S(N)(=O)=O)ccc1NC1CCc2cc(Cl)ccc21 (stereo not drawn) | -11.2%
CC(=O)NCCNC(=O)NCC1Cc2ccccc2O1 (stereo not drawn) | -4.29%
Cc1ccccc1C(CC(=O)NCc1n[nH]c(N)n1)c1ccccc1 (stereo not drawn) | -4.71%
O=C(CCCOc1cccc(F)c1)N1CCCC(n2cncn2)C1 (stereo not drawn) | 1.02%
CCc1ccc(CN2CCC3(CC2)C(=O)N(C)CCN3CC2CC2)cc1 | -13.9%
Cc1nc(-c2ccc(CC(=O)N3CCN(C(=O)C(C)C)CC3)cc2)cs1 | -1.97%
COc1ccc2c(=O)ccn(CC(=O)O)c2c1 | 1.58%
O=C(Nc1c(N2CCCC2)cccc1N1CCCC1)c1cnccn1 | -14.4%
c1cc(CN2CCC3(CC2)CC(N2CCCC2)CO3)co1 (stereo not drawn) | -5.63%
Cc1ccc(C(=O)NCCS(=O)(=O)Cc2ccccc2)c(C)c1 | 1.96%
c1ccc(SCCN2CCCC(Cn3ccnc3)C2)cc1 (stereo not drawn) | -5.94%
CC(C)=CCCC(C)(O)c1cc(C(N)=O)no1 (stereo not drawn) | -9.16%
CC(C)c1ncncc1C(=O)N1CCCN(Cc2cccs2)CC1 | -18.9%
O=C(O)C1CCN(C(=O)CCn2ccc3cc(Br)ccc32)CC1 | -15.9%
CCn1c(CC2CCNCC2)nn(Cc2ccc(C(=O)NC)o2)c1=O | -11.7%
CCNc1ncc(C(=O)NCc2csc(-c3cnccn3)n2)cn1 | -10.4%
Cc1nnc2ccc(N3CCN(Cc4nccn4C)CC3)nn12 | 5.33%
CN1CCN(C(=O)CCn2ncc3ccccc32)CC(C(N)=O)C1 (stereo not drawn) | -6.19%
O=C(CCc1ccco1)NS(=O)(=O)Cc1ccon1 | -3.83%

Compound | cytotoxicity at 70.5 h
Cc1[nH]c2c(C)ccc(C)c2c1CC(=O)NCc1csc(N(C)C)n1 | 17.8%
CC(C)NC(=O)CCNC(=O)c1cc(Br)cn1C(C)C | 1.21%
NC(=O)Cc1ccc(OCc2noc(C(=O)N3CCCC3)n2)cc1 | -23.4%
CC(Cn1cccn1)NC(=O)Nc1nccs1 (stereo not drawn) | -21.9%
NC(=O)c1ccc(N2CCCCC2)c(NC(=O)c2ccc(Br)cc2)c1 | -4.44%
CN(C)C[C@H]1OC[C@@H]2CN(C(=O)NCc3cccc(F)c3)CC[C@@H]21 | -5.06%
CC(C)NC(=O)N1CCC2(CCC(=O)N2CCN2CCCC2)CC1 | -9.28%
O=C(O)CCc1nc2nccc(-c3ccc(F)cc3)n2n1 | 20.1%
COc1cccc(CC(=O)N2CCc3ncnc(C)c3CC2)c1 | -5.98%
Cc1cc(C)c(CNC(=O)N2CCC(N3CCNC3=O)CC2)c(C)c1 | -7.95%
CCCn1cnc2c1CN(S(=O)(=O)c1ccc(F)cc1)[C@H](C(=O)OC)C2 | 12.5%
COCCC1(C(=O)O)CCCN(C(=O)c2cc(C)oc2C)C1 (stereo not drawn) | -15.5%
Cn1cnc(S(=O)(=O)NCCCN2CCCCCC2=O)c1Cl | 0.779%
Cc1nc(C2CCCN(C(=O)c3cnc(C)s3)C2)no1 (stereo not drawn) | 10.2%
CCn1nc(C)c(CNC(=O)c2cn(CCC3CCCCN3)nn2)c1C (stereo not drawn) | -7.47%
CCOC(=O)C1(Cc2ccccc2-c2ccccc2OC)CCNCC1 | 11%
CCn1nc(C)c(CNC(=O)NCC(C)(O)c2ccccc2)c1C (stereo not drawn) | -3.1%
Cc1ccc(C(CNC(=O)Cc2nc3ncccn3n2)N(C)C)cc1 (stereo not drawn) | -10.7%
Cc1noc(C)c1NC(=O)N1CCC(NC(=O)OC(C)(C)C)CC1 | -5.75%
Cc1cc(CN(Cc2ccccc2)C(C)CN2CCOCC2)no1 (stereo not drawn) | -5.58%
CC(=O)N1CC[C@H]2[C@H](C[C@@H](CN3CCCC3)N2c2nccs2)C1 | -7.72%
CC(C)NC(=O)N1CCCC(c2nnc(CN3CCOCC3)n2C)C1 (stereo not drawn) | -10.9%
Cc1cccc(-c2nccnc2C2CCN(C)CC2)c1C | 0.0925%

Compound | cytotoxicity at 70.5 h
O=C(C1CCOCC1)N1C[C@H]2CC[C@@H]1CN(Cc1ccncc1)C2 | -6.05%
O=C(c1[nH]nc(C2CC2)c1Cl)N1CCCC1 | 3.72%
N#Cc1ccccc1N1CCCN(C(=O)CCc2ccsc2)CC1 | 1.39%
CC(C)CN1CC(O)CN(S(=O)(=O)c2ccc(F)cc2)CC1=O (stereo not drawn) | -9.29%
COc1ccccc1OCCN(C)c1cc(C)nc(N)n1 | 18.7%
COc1ccc(Cl)cc1CC(=O)NS(=O)(=O)c1ccc(C(N)=O)cc1 | -3.68%
CCN(CC)c1ccc(CNC(=O)c2cnccn2)cn1 | 18%
O=C(c1ccc[nH]1)N1CCn2cc(CN3CCCC3)nc2C1 | -8.96%
CN(CC1COc2ccccc2O1)C(=O)NCCCn1cncn1 (stereo not drawn) | -4.69%
N#Cc1csc(CN(CC(=O)N2CCCC2)CC2CCCO2)c1 (stereo not drawn) | 0.764%
CC(O)(CNC(=O)c1cccnc1-n1cccn1)c1cccs1 (stereo not drawn) | -9.1%
O=C(CCOCc1ccccc1)N1CCCC1c1noc(C2CC2)n1 (stereo not drawn) | -2.09%
O=S(=O)(N1CCCC1)N1CC[C@H](c2ccccc2)[C@H]2NCCCC[C@H]21 | -2.6%
OC(COc1ccc(F)cc1)CN1CCC(c2ccn[nH]2)CC1 (stereo not drawn) | -9.19%
CCCN1CCC(CC(=O)N[C@H](C(=O)O)c2cccc(F)c2F)CC1 | -8.2%
COCCCn1ccc(NCc2cnc(C(C)(C)C)s2)n1 | 27.4%
Cc1n[nH]cc1CNC(=O)Nc1cccc(OCC(F)(F)F)c1 | -6.62%
COc1ccc(Cl)cc1NC(=O)N(C)CC(O)COCCOC(C)C (stereo not drawn) | -4.88%
CC(C)c1nc(N2CCC(N3CCCCCC3)CC2)c2cnn(C)c2n1 | 13%
Cn1cc(CN2CCC3(CCCN3S(C)(=O)=O)CC2)cn1 | 12.4%
CC(C)[C@@H]1CN(Cc2cnc(C3CCCCC3)nc2)C[C@H]1N(C)C | 8.03%
